Reference: patent US12398154B2, “Azaquinazoline pan-KRas inhibitors” (Mirati Therapeutics, Inc., priority 2020, dated 2025)

Assays:
[1] = target: KRas G12S (Homo sapiens, UniProt P01116, G12S); assay: biochemical;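 note: TR-FRET displacement binding to KRas, read after one hour incubation at room temperature, IC50 from four-parameter fit of percent of control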
Experimental: (§1) The ability of a compound to bind to KRas was measured using a TR-FRET displacement assay. […] After a 60-minute incubation at room temperature, the reaction was measured using a BMG LABTECH CLARIO star Plus via TR-FRET. […] The POC values were fit to a 4-parameter IC50 equation and the IC50 value reported.

[2] = target: KRas G12R (Homo sapiens, UniProt P01116, G12R); assay: biochemical;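 note: TR-FRET displacement assay of compound binding to KRas, read after one hour at room temperature, potency from a four-parameter fit of percent-of-control values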
Experimental: as §1

[3] = target: KRas G12D (Homo sapiens, UniProt P01116, G12D); assay: biochemical;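 note: TR-FRET displacement binding assay on KRas, read after a one-hour incubation at room temperature, IC50 fitted from percent-of-control values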
Experimental: as §1

[4] = target: KRas G12V (Homo sapiens, UniProt P01116, G12V); assay: biochemical;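 note: KRas binding measured by TR-FRET displacement at room temperature, IC50 fitted from percent of control values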
Experimental: as §1

[5] = target: T1, KRas Q61H (Homo sapiens, UniProt P01116, Q61H); assay: KRas binding assay (TR-FRET displacement);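 note: TR-FRET signal read after one hour at room temperature, IC50 derived by four-parameter fitting of percent-of-control values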
T1 construct: Biotinylated KRas (corresponding to amino acids 1-169, produced at Accelegan Inc.); biotin (biotinylated); purchased Accelegan Inc
Experimental: as §1

[6] = target: T2, KRas G13D (Homo sapiens, UniProt P01116, G13D); assay: KRas binding assay (TR-FRET displacement);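 note: One-hour room temperature incubation before TR-FRET reading, IC50 from a four-parameter curve fit to percent-of-control data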
T2 construct: Biotinylated KRas (corresponding to amino acids 1-169, produced at Accelegan Inc.); biotin (biotinylated); purchased Accelegan Inc
Experimental: as §1

[7] = target: KRas G12A (Homo sapiens, UniProt P01116, G12A); assay: biochemical;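 note: binding to KRas measured by TR-FRET displacement after one hour at room temperature, IC50 from a four-parameter fit of percent-of-control values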
Experimental: as §1

[8] = target: KRas G12C (Homo sapiens, UniProt P01116, G12C); assay: biochemical;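 note: binding to KRas assessed by TR-FRET displacement after one hour incubation at room temperature, potency fitted from percent-of-control values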
Experimental: as §1

[9] = target: KRas WT (Homo sapiens, UniProt P01116); assay: biochemical;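 note: binding to KRas read as TR-FRET displacement after a one-hour room-temperature incubation, IC50 derived from percent-of-control values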
KRas WT, sequence (P01116 1-169 isoform P01116-2): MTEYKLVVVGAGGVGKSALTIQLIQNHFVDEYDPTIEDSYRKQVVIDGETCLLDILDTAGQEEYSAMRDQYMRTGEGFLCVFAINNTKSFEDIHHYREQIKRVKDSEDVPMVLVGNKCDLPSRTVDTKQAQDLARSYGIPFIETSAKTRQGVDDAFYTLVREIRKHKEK
Experimental: as §1

KRas G12D, sequence (P01116 1-169 isoform P01116-2 G12D): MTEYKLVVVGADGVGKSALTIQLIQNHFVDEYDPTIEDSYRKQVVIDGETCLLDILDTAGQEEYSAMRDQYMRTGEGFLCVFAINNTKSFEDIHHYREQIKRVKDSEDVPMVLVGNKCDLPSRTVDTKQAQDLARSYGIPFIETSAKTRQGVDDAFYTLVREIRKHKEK
KRas G12S, sequence (P01116 1-169 isoform P01116-2 G12S): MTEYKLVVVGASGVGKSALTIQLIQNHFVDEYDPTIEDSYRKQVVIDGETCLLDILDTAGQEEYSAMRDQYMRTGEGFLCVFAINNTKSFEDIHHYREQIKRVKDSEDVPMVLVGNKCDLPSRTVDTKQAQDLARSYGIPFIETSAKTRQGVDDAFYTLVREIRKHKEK
KRas G12V, sequence (P01116 1-169 isoform P01116-2 G12V): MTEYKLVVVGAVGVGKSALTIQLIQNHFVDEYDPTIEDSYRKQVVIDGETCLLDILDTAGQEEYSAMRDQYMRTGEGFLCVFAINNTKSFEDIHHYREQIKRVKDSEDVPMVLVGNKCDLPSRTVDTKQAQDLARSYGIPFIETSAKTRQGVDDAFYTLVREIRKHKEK
KRas G12A, sequence (P01116 1-169 isoform P01116-2 G12A): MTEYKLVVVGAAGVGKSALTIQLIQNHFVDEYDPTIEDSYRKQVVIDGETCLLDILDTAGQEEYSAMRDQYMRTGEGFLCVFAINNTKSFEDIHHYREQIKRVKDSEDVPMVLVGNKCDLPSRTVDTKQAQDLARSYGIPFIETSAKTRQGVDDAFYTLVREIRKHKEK
KRas G12R, sequence (P01116 1-169 isoform P01116-2 G12R): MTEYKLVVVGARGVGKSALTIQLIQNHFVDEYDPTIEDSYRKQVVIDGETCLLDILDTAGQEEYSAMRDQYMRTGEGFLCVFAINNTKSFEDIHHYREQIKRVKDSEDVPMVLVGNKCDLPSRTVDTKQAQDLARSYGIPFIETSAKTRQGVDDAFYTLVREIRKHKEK
KRas G12C, sequence (P01116 1-169 isoform P01116-2 G12C): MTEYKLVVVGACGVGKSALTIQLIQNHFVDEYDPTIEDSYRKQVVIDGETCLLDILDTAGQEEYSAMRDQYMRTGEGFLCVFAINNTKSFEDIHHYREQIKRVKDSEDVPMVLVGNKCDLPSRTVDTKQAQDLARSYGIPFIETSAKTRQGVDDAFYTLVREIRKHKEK
T2 sequence (P01116 1-169 isoform P01116-2 G13D): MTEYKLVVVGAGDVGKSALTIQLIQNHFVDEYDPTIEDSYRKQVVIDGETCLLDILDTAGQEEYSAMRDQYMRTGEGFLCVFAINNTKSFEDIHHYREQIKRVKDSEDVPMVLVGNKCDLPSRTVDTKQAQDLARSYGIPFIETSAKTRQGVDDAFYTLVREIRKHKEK
T1 sequence (P01116 1-169 isoform P01116-2 Q61H): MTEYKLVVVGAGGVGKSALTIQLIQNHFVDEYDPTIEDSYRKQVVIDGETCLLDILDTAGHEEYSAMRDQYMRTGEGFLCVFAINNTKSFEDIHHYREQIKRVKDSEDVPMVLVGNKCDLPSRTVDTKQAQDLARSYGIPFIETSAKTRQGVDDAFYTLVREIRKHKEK

| IC50 [1] | IC50 [2] | IC50 [3] | IC50 [4] | IC50 [5] | IC50 [6] | IC50 [7] | IC50 [8] | IC50 [9] | Compound |
| --- | --- | --- | --- | --- | --- | --- | --- | --- | --- |
| 6.31 µM | 8.67 µM | 10.8 µM | 6.07 µM | 7470 nM | 6700 nM | 6.75 µM | 8.25 µM | 5.57 µM | Fc1c(-c2cccc3cccc(F)c23)ncc2c(N3CCCC4(COC4)C3)nc(OCC34CCCN3CCC4)nc12 [Example 220, 6-(8-fluoro-7-(8-fluoronaphthalen-1-yl)-2-((tetrahydro-1H-pyrrolizin-7a(5H)-yl)methoxy)pyrido[4,3-d]pyrimidin-4-yl)-2-oxa-6-azaspiro[3.5]nonane] |
| 0.313 µM | 0.191 µM | 0.586 µM | 0.556 µM | 231 nM | 308 nM | 0.271 µM | 0.498 µM | 0.284 µM | NS(=O)(=O)CC1CCCN(c2nc(OCC34CCCN3CCC4)nc3c(F)c(-c4cccc5cccc(F)c45)ncc23)C1 (stereo not drawn) [Example 221, 1-(1-(8-fluoro-7-(8-fluoronaphthalen-1-yl)-2-((tetrahydro-1H-pyrrolizin-7a(5H)-yl)methoxy)pyrido[4,3-d]pyrimidin-4-yl)piperidin-3-yl)methanesulfonamide] |
| 26.9 µM | 31.2 µM | ≥ 100 µM | 18.2 µM | 52900 nM | 70100 nM | 17.8 µM | 8.98 µM | 35.9 µM | Fc1c(-c2cccc3cccc(F)c23)ncc2c(NCc3cnn4c3OCCC4)nc(OCC34CCCN3CCC4)nc12 [Example 222, N-((6,7-dihydro-5H-pyrazolo[5,1-b][1,3]oxazin-3-yl)methyl)-8-fluoro-7-(8-fluoronaphthalen-1-yl)-2-((tetrahydro-1H-pyrrolizin-7a(5H)-yl)methoxy)pyrido[4,3-d]pyrimidin-4-amine] |
| 1.8 µM | 0.665 µM | 21.1 µM | 0.93 µM | 8650 nM | 6870 nM | 1.36 µM | 1.19 µM | 5.6 µM | CN(Cc1c[nH]c2ncccc12)c1nc(OCC23CCCN2CCC3)nc2c(F)c(-c3cccc4cccc(F)c34)ncc12 [Example 223, N-((1H-pyrrolo[2,3-b]pyridin-3-yl)methyl)-8-fluoro-7-(8-fluoronaphthalen-1-yl)-N-methyl-2-((tetrahydro-1H-pyrrolizin-7a(5H)-yl)methoxy)pyrido[4,3-d]pyrimidin-4-amine] |
| 7.11 µM | 4.02 µM | 64.8 µM | 8.48 µM | 9670 nM | 4830 nM | 8.45 µM | 11.7 µM | 6.28 µM | O=C1NC2(CCN(c3nc(OCC45CCCN4CCC5)nc4c(F)c(-c5cccc6cccc(F)c56)ncc34)CC2)CO1 [Example 224, 8-(8-fluoro-7-(8-fluoronaphthalen-1-yl)-2-((tetrahydro-1H-pyrrolizin-7a(5H)-yl)methoxy)pyrido[4,3-d]pyrimidin-4-yl)-3-oxa-1,8-diazaspiro[4.5]decan-2-one] |
| 9.9 µM | 9.39 µM | 21.7 µM | 6.24 µM | 26100 nM | 23500 nM | 14.9 µM | 8.12 µM | 16.6 µM | NC(=O)CCNc1nc(OCC23CCCN2CCC3)nc2c(F)c(-c3cccc4cccc(F)c34)ncc12 [Example 225, 3-((8-fluoro-7-(8-fluoronaphthalen-1-yl)-2-((hexahydro-1H-pyrrolizin-7a-yl)methoxy)pyrido[4,3-d]pyrimidin-4-yl)amino)propanamide] |
| 0.202 µM | 0.224 µM | 0.147 µM | 0.148 µM | 822 nM | 465 nM | 1.21 µM | 1.02 µM | 2.7 µM | O=C1NC(=O)C2CN(c3nc(OCC45CCCN4CCC5)nc4c(F)c(-c5cccc6cccc(F)c56)ncc34)CC12 (stereo not drawn) [Example 228, 5-(8-fluoro-7-(8-fluoronaphthalen-1-yl)-2-((hexahydro-1H-pyrrolizin-7a-yl)methoxy)pyrido[4,3-d]pyrimidin-4-yl)tetrahydropyrrolo[3,4-c]pyrrole-1,3(2H,3aH)-dione] |
| 19.7 µM | 9.85 µM | 38.8 µM | 7.99 µM | 23300 nM | 35500 nM | 11.3 µM | 10.6 µM | 28.4 µM | O=c1[nH][nH]cc1CNc1nc(OCC23CCCN2CCC3)nc2c(F)c(-c3cccc4cccc(F)c34)ncc12 [Example 230, 4-(((8-fluoro-7-(8-fluoronaphthalen-1-yl)-2-((hexahydro-1H-pyrrolizin-7a-yl)methoxy)pyrido[4,3-d]pyrimidin-4-yl)amino)methyl)-1H-pyrazol-3(2H)-one] |
| 31.6 µM | 8.68 µM | 97.9 µM | 24.6 µM | 62300 nM | 61500 nM | 52.1 µM | 29.6 µM | 49.4 µM | O=c1cc(CNc2nc(OCC34CCCN3CCC4)nc3c(F)c(-c4cccc5cccc(F)c45)ncc23)[nH][nH]1 [Example 231, 5-(((8-fluoro-7-(8-fluoronaphthalen-1-yl)-2-((hexahydro-1H-pyrrolizin-7a-yl)methoxy)pyrido[4,3-d]pyrimidin-4-yl)amino)methyl)-1H-pyrazol-3(2H)-one] |
| 19.4 µM | 9.99 µM | 11.9 µM | 7.78 µM | 25900 nM | 18000 nM | 17.3 µM | 13.6 µM | 19.2 µM | Fc1c(-c2cccc3cccc(F)c23)ncc2c(N3CCCC4(CCC4)C3)nc(OCC34CCCN3CCC4)nc12 [Example 232, 8-fluoro-7-(8-fluoronaphthalen-1-yl)-2-((hexahydro-1H-pyrrolizin-7a-yl)methoxy)-4-(6-azaspiro[3.5]nonan-6-yl)pyrido[4,3-d]pyrimidine] |
| 7.45 µM | 5.56 µM | 6.7 µM | 4.64 µM | 5350 nM | 7380 nM | 2.65 µM | 6.15 µM | 4.3 µM | OC1CCC12CCCN(c1nc(OCC34CCCN3CCC4)nc3c(F)c(-c4cccc5cccc(F)c45)ncc13)C2 (stereo not drawn) [Example 233, 6-(8-fluoro-7-(8-fluoronaphthalen-1-yl)-2-((tetrahydro-1H-pyrrolizin-7a(5H)-yl)methoxy)pyrido[4,3-d]pyrimidin-4-yl)-6-azaspiro[3.5]nonan-1-ol] |
| 1.76 µM | 1.85 µM | 2.02 µM | 1.6 µM | 2590 nM | 1980 nM | 2.3 µM | 1.62 µM | 2.64 µM | Fc1c(-c2cccc3cccc(F)c23)ncc2c(N3CCCC4(CC(F)C4)C3)nc(OCC34CCCN3CCC4)nc12 (stereo not drawn) [Example 234, 8-fluoro-4-(2-fluoro-6-azaspiro[3.5]nonan-6-yl)-7-(8-fluoronaphthalen-1-yl)-2-((hexahydro-1H-pyrrolizin-7a-yl)methoxy)pyrido[4,3-d]pyrimidine] |
| 2.01 µM | 2.87 µM | 2.66 µM | 1.7 µM | 3360 nM | 2710 nM | 2.15 µM | 1.65 µM | 2.65 µM | OC1CC2(CCCN(c3nc(OCC45CCCN4CCC5)nc4c(F)c(-c5cccc6cccc(F)c56)ncc34)C2)C1 (stereo not drawn) [Example 235, 6-(8-fluoro-7-(8-fluoronaphthalen-1-yl)-2-((hexahydro-1H-pyrrolizin-7a-yl)methoxy)pyrido[4,3-d]pyrimidin-4-yl)-6-azaspiro[3.5]nonan-2-ol] |
| 0.897 µM | 3.35 µM | 2.33 µM | 0.623 µM | 4440 nM | 2460 nM | 3.39 µM | 2.04 µM | 3.5 µM | O=C1CC(CNc2nc(OCC34CCCN3CCC4)nc3c(F)c(-c4cccc5cccc(F)c45)ncc23)C(=O)N1 (stereo not drawn) [Example 236, 3-(((8-fluoro-7-(8-fluoronaphthalen-1-yl)-2-((hexahydro-1H-pyrrolizin-7a-yl)methoxy)pyrido[4,3-d]pyrimidin-4-yl)amino)methyl)pyrrolidine-2,5-dione] |
| 8.92 µM | 9.74 µM | 9.56 µM | 7.61 µM | 6380 nM | 8290 nM | 5.34 µM | 7.59 µM | 4.36 µM | CNS(=O)(=O)C1CCCN(c2nc(OCC34CCCN3CCC4)nc3c(F)c(-c4cccc5cccc(F)c45)ncc23)C1 (stereo not drawn) [Example 237, 1-(8-fluoro-7-(8-fluoronaphthalen-1-yl)-2-((hexahydro-1H-pyrrolizin-7a-yl)methoxy)pyrido[4,3-d]pyrimidin-4-yl)-N-methylpiperidine-3-sulfonamide] |
| 2.21 µM | 4.81 µM | 8.65 µM | 4.93 µM | 2670 nM | 1640 nM | 1.98 µM | 1.61 µM | 1.83 µM | O=S1(=O)CCCN1C1CCCN(c2nc(OCC34CCCN3CCC4)nc3c(F)c(-c4cccc5cccc(F)c45)ncc23)C1 (stereo not drawn) [Example 239, 2-(1-(8-fluoro-7-(8-fluoronaphthalen-1-yl)-2-((hexahydro-1H-pyrrolizin-7a-yl)methoxy)pyrido[4,3-d]pyrimidin-4-yl)piperidin-3-yl)isothiazolidine 1,1-dioxide] |
